Measured values as given in US8440710B2, “HSL inhibitors useful in the treatment of diabetes” (Hoffmann-La Roche Inc., priority 2009, dated 2013).

Target: T1, human HSL (Homo sapiens, UniProt Q05469)
T1 construct: generate a full length human HSL ORF with a 3′-His6 tag; made in house; host or cells: High 5 insect cells (baculovirus, pFast-BAC)
T1 sequence (Q05469 1-1076): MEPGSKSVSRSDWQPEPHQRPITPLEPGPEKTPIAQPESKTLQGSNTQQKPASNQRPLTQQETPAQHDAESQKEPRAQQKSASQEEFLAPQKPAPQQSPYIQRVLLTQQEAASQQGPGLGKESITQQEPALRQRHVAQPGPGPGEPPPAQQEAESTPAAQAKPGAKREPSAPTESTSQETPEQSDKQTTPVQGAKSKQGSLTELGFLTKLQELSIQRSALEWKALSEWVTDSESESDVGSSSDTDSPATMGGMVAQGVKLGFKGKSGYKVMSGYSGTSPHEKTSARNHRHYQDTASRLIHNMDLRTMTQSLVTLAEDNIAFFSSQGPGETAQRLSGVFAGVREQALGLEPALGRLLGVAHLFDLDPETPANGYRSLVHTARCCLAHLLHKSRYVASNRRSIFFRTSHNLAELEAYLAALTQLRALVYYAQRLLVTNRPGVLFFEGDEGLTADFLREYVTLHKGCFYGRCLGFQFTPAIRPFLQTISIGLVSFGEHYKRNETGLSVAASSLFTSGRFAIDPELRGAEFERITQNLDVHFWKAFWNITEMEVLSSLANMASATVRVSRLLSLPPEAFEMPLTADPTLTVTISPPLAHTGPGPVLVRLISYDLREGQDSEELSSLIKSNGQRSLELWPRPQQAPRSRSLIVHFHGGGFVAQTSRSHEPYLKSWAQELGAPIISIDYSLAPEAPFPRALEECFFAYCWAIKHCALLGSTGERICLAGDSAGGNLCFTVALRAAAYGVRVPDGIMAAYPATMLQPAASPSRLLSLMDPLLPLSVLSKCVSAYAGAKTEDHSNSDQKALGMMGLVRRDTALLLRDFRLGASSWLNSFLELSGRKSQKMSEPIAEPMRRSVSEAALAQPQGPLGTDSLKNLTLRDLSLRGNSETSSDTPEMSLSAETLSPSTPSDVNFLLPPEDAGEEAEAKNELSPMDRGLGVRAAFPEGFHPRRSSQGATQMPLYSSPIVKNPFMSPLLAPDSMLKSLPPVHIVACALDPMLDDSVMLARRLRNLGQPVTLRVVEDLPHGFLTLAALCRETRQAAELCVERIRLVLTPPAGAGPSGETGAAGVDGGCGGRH
Test: Human Hormone-Sensitive Lipase (HSL) enzyme inhibition assay (colorimetric, DMPT substrate)
Type: biochemical
Conditions: human full length HSL-His6, 2,3-dimercapto-1-propanol tributyrate substrate, 37° C. 20 minutes, absorbance at 405 nm; read-out: HSL hum IC50
Method in brief: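 Full-length human HSL with C-terminal His6, expressed in baculovirus-infected High 5 cells and Ni-NTA purified, was added (15 ug/ml stock) to 1.5 mM DMPT in 100 mM MOPS pH 7.2, 0.2 mg/ml fatty acid-free BSA containing compound. After 20 min at 37 °C, DTNB with SDS/Triton X-100 was added; A405 read after 15 min at RT.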

SMILES	IC50
CC(C)(C)c1ccc(N2CC[C@]3(CC[C@@](O)(COCC(F)(F)F)CC3)C2=O)cc1 [Example 347, (5α,8α)-2-(4-tert-Butyl-phenyl)-8-hydroxy-8-(2,2,2-trifluoro-ethoxymethyl)-2-aza-spiro[4.5]decan-1-one]	10 nM
CCOC[C@]1(O)CC[C@]2(CCN(c3ccc(C(C)(C)C)cc3)C2=O)CC1 [Example 348, (5α,8α)-2-(4-tert-Butyl-phenyl)-8-ethoxymethyl-8-hydroxy-2-aza-spiro[4.5]decan-1-one]	10 nM
CC(C)OC[C@]1(O)CC[C@]2(CCN(c3ccc(C(C)(C)C)cc3)C2=O)CC1 [Example 349, (5α,8α)-2-(4-tert-Butyl-phenyl)-8-hydroxy-8-isopropoxymethyl-2-aza-spiro[4.5]decan-1-one]	10 nM
CC(C)(C)c1ccc(N2CC[C@]3(CC[C@@](O)(CN4CCCC4=O)CC3)C2=O)cc1 [Example 350, (5α,8α)-2-(4-tert-Butyl-phenyl)-8-hydroxy-8-(2-oxo-pyrrolidin-1-ylmethyl)-2-aza-spiro[4.5]decan-1-one]	10 nM
CC(C)(C)c1ccc(N2CC[C@]3(CC[C@@](O)(CN4CCCCC4=O)CC3)C2=O)cc1 [Example 351, (5α,8α)-2-(4-tert-Butyl-phenyl)-8-hydroxy-8-(2-oxo-piperidin-1-ylmethyl)-2-aza-spiro[4.5]decan-1-one]	10 nM
CC(C)(C)c1ccc(N2CCC3(CCC(O)(COc4ccccn4)CC3)C2=O)cc1 (stereo not drawn) [Example 352, (5α,8α)-2-(4-tert-Butyl-phenyl)-8-hydroxy-8-(pyridin-2-yloxymethyl)-2-aza-spiro[4.5]decan-1-one]	30 nM
CC(C)(C)c1ccc(N2CCC3(CCC(O)(Cn4ccccc4=O)CC3)C2=O)cc1 (stereo not drawn) [Example 353, (5α,8α)-2-(4-tert-Butyl-phenyl)-8-hydroxy-8-(2-oxo-2H-pyridin-1-ylmethyl)-2-aza-spiro[4.5]decan-1-one]	10 nM
CC(C)(C)c1ccc(N2CC[C@]3(CC[C@@](O)(COc4cccnc4)CC3)C2=O)cc1 [Example 354, (5α,8α)-2-(4-tert-Butyl-phenyl)-8-hydroxy-8-(pyridin-3-yloxymethyl)-2-aza-spiro[4.5]decan-1-one]	50 nM
CC(C)C(O)[C@H]1CC[C@@]2(CCN(c3ccc(C(C)(C)C)cc3)C2=O)CC1 (stereo partly drawn) [Example 355, (5α,8β)-2-(4-tert-Butyl-phenyl)-8-(1-hydroxy-2-methyl-propyl)-2-aza-spiro[4.5]decan-1-one]	50 nM
CC(C)C(O)[C@H]1CC[C@]2(CCN(c3ccc(C(C)(C)C)cc3)C2=O)CC1 (stereo partly drawn) [Example 356]	100 nM
CC(O)C1CCC2(CC1)CCN(c1ccc(C(C)(C)C)cc1)C2=O (stereo not drawn) [Example 357, (5α,8β)-2-(4-tert-Butyl-phenyl)-8-(1-hydroxy-ethyl)-2-aza-spiro[4.5]decan-1-one]	50 nM
CC(O)C1CCC2(CC1)CCN(c1ccc(C(C)(C)C)cc1)C2=O (stereo not drawn) [Example 358, (5α,8α)-2-(4-tert-Butyl-phenyl)-8-(1-hydroxy-ethyl)-2-aza-spiro[4.5]decan-1-one]	50 nM
CCC(O)[C@H]1CC[C@@]2(CCN(c3ccc(C(C)(C)C)cc3)C2=O)CC1 (stereo partly drawn) [Example 359, (5α,8β)-2-(4-tert-Butyl-phenyl)-8-(1-hydroxy-propyl)-2-aza-spiro[4.5]decan-1-one]	30 nM
CC(C)(C)c1ccc(N2CCC3(CCC(C(O)(O)C(F)(F)F)CC3)C2=O)cc1 (stereo not drawn) [Example 362, 2-(4-tert-Butyl-phenyl)-8-(2,2,2-trifluoro-1,1-dihydroxy-ethyl)-2-aza-spiro[4.5]decan-1-one]	10 nM
CC(C)(C)c1ccc(N2CC[C@]3(CC[C@@H](C(O)c4ccn[nH]4)CC3)C2=O)cc1 (stereo partly drawn) [Example 363, (5α,8β)-2-(4-tert-Butyl-phenyl)-8-[hydroxy-(2H-pyrazol-3-yl)-methyl]-2-aza-spiro[4.5]decan-1-one]	30 nM
CC(C)(C)c1ccc(N2CC[C@]3(CC[C@@H](Cc4ccn[nH]4)CC3)C2=O)cc1 [Example 364, (5α,8β)-2-(4-tert-Butyl-phenyl)-8-(2H-pyrazol-3-ylmethyl)-2-aza-spiro[4.5]decan-1-one]	10 nM
CCC(O)[C@H]1CC[C@@]2(CCN(c3ccc(O[C@H](C)C(F)(F)F)cc3)C2=O)CC1 (stereo partly drawn) [Example 365, (5α,8β)-8-(1-Hydroxy-propyl)-2-[4-((R)-2,2,2-trifluoro-1-methyl-ethoxy)-phenyl]-2-aza-spiro[4.5]decan-1-one]	50 nM
CCC(O)[C@H]1CC[C@]2(CCN(c3ccc(O[C@H](C)C(F)(F)F)cc3)C2=O)CC1 (stereo partly drawn) [Example 366, (5α,8α)-8-(1-Hydroxy-propyl)-2-[4-((R)-2,2,2-trifluoro-1-methyl-ethoxy)-phenyl]-2-aza-spiro[4.5]decan-1-one]	290 nM
O=C1CCCN1C[C@]1(O)CC[C@]2(CCN(c3ccc(OCC(F)(F)F)cc3)C2=O)CC1 [Example 367, (5α,8α)-8-Hydroxy-8-(2-oxo-pyrrolidin-1-ylmethyl)-2-[4-(2,2,2-trifluoro-ethoxy)-phenyl]-2-aza-spiro[4.5]decan-1-one]	80 nM
O=C1CCCCN1C[C@]1(O)CC[C@]2(CCN(c3ccc(OCC(F)(F)F)cc3)C2=O)CC1 [Example 368, (5α,8α)-8-Hydroxy-8-(2-oxo-piperidin-1-ylmethyl)-2-[4-(2,2,2-trifluoro-ethoxy)-phenyl]-2-aza-spiro[4.5]decan-1-one]	80 nM
O=c1ccccn1C[C@]1(O)CC[C@]2(CCN(c3ccc(OCC(F)(F)F)cc3)C2=O)CC1 [Example 369, (5α,8α)-8-Hydroxy-8-(2-oxo-2H-pyridin-1-ylmethyl)-2-[4-(2,2,2-trifluoro-ethoxy)-phenyl]-2-aza-spiro[4.5]decan-1-one]	20 nM
O=c1ccccn1C[C@]1(O)CC[C@@]2(CCN(c3ccc(OCC(F)(F)F)cc3)C2=O)CC1 [Example 370, (5α,8β)-8-Hydroxy-8-(2-oxo-2H-pyridin-1-ylmethyl)-2-[4-(2,2,2-trifluoro-ethoxy)-phenyl]-2-aza-spiro[4.5]decan-1-one]	80 nM
O=C1N(c2ccc(OCC(F)(F)F)cc2)CC[C@]12CC[C@@](O)(COc1ccccn1)CC2 [Example 371, (5α,8α)-8-Hydroxy-8-(pyridin-2-yloxymethyl)-2-[4-(2,2,2-trifluoro-ethoxy)-phenyl]-2-aza-spiro[4.5]decan-1-one]	20 nM
CO[C@H](c1ccc(N2CC[C@]3(CC[C@@](O)(COCC(F)(F)F)CC3)C2=O)cc1)C(F)(F)F [Example 372, (5α,8α)-8-Hydroxy-8-(2,2,2-trifluoro-ethoxymethyl)-2-[4-((R)-2,2,2-trifluoro-1-methoxy-ethyl)-phenyl]-2-aza-spiro[4.5]decan-1-one]	17 nM
CCc1ccc(CCN2CC[C@]3(CC[C@@](O)(COC)CC3)C2=O)cc1 [Example 373, (5α,8α)-2-[2-(4-Ethyl-phenyl)-ethyl]-8-hydroxy-8-methoxymethyl-2-aza-spiro[4.5]decan-1-one]	70 nM
CC(C)Oc1ccc(N2CC[C@]3(CC[C@@](O)(c4cnn[nH]4)CC3)C2=O)cc1 [Example 374, (5α,8α)-8-hydroxy-2-(4-isopropoxyphenyl)-8-(1H-1,2,3-triazol-4-yl)-2-azaspiro[4.5]decan-1-one]	400 nM
CCc1ccc(CCN2CC[C@]3(CC[C@@](O)(COC(C)C)CC3)C2=O)cc1 [Example 375, (5α,8α)-2-[2-(4-Ethyl-phenyl)-ethyl]-8-hydroxy-8-isopropoxymethyl-2-aza-spiro[4.5]decan-1-one]	14.2 nM
